Experimental data reported in patent publication US7897580B2, “β glycolipids as immuno-modulators” (priority 2005, dated 2011).

Columns and labels:
[1] = system: TNBS colitis; assay: TNBS-induced experimental colitis, single β-glycolipids (Example 1); format: in vivo, C57Bl mice; conditions: oral 15 μg daily, compared with controls
Procedure: (§1) 2,4,6-trinitrobenzene sulfonic acid (TNBS)—colitis was induced by intracolonic instillation of TNBS, 1 mg/mouse, dissolved in […] of 50% ethanol as described. [Collins, C., etal., Eur. J. Immunol. 26:3114-3118 (1996)].
(§2) Diarrhea was followed daily throughout the study.
(§3) Colitis assessment was performed 14 days following colitis induction using standard parameters [Madsen, K. L., et al., Gastroenterology 113:151-159 (1997); Trop, S., et al., Hepatology 27:746-755 (1999)].
Four macroscopic parameters were determined, namely: degree of colonic ulcerations; intestinal and peritoneal adhesions; wall thickness; and degree of mucosal edema. Each parameter was graded on a scale from 0 (completely normal) to 4 (most severe) by two experienced blinded examiners. […]
Immediately following lymphocyte isolation, triplicates of 2-5×10^4 cells/500 μl PBS were put into Falcon 2052 tubes incubated with 4 ml of 1% BSA for 10 minutes, and centrifuged at 1400 rpm for 5 minutes. […] Cells were washed twice in 1% BSA, and kept in 4° C. until reading. […] Analytical cell sorting was performed on 1×10^4 cells from each group with a fluorescence-activated cell sorter (FACSTAR plus, Becton Dickinson). Only live cells were counted, and background fluorescence from non-antibody-treated lymphocytes was deducted from the levels obtained. […]

[2] = system: human Hep3B HCC; assay: Hep3B hepatocellular carcinoma transplanted into athymic Balb/c mice (Example 2); format: in vivo; conditions: for hepatic/splenic NKT lymphocyte ratio / reduction of tumor volume (% change from maximal volume) / tumors developed (% of animals) / maximal tumor volume: daily i.p. 1.5 μg for 25 days; for hepatic/splenic NKT lymphocyte ratio: PBS control 0.38, p<0.05, FIG. 7; for reduction of tumor volume (% change from maximal volume): controls 10% increase, p<0.05, FIG. 6; for tumors developed (% of animals): controls 100%, FIG. 4; for maximal tumor volume: controls 101.14 mm^3, p<0.05, FIG. 5; for STAT4 expression in splenocytes / STAT6 expression in splenocytes: vs. controls, FIG. 9
Excerpt: Splenocytes were isolated and red blood cells removed as previously described [Vicari, A. P., et al., Immunology Today 17(2):71 (1996)]. Intrahepatic lymphocytes were isolated from all groups of mice at the end of the study, as previously described, with some modifications [Vicari et al., (1996) ibid.; Bleicher, P. A., et al., Science 250:679-682 (1990)]. […] The connective tissue and the gall bladder were removed, and livers were place in a 10-ml dish in cold sterile PBS. Livers and spleens were crushed through a stainless mesh (size 60, Sigma Chemical Co., St. Louis Mo.). Cell suspension was placed in a 50 ml tube for 3 minutes and washed twice in cold PBS (1,250×rpm for 10 minutes), and debris was removed. Cells were re-suspended in PBS, cell suspension was placed through a nylon mesh presoaked in PBS, and unbound cells were collected. Cells were washed twice in 45 ml PBS (1,250×rpm in room temperature). For liver and spleen lymphocyte isolation 20 ml of histopague 1077 (Sigma Diagnostics, St. Louis, Mo.) were slowly placed underneath the cells suspended in 7 ml of PBS, in a 50-ml tube. The tube was centrifuged at 1,640 rpm for 15 minutes at room temperature. Cells at the interface were collected, diluted in a 50-ml tube, and washed twice with ice-cold PBS (1,250 rpm for 10 minutes). Approximately 1×10^6 cells/mouse liver were recovered. The viability by trypan blue staining was more than 95%. Both splenocytes and liver-associated lymphocytes were isolated from all animals in all experimental groups.
Immediately following lymphocyte isolation, triplicates of 2-5×10^4 cells/500 μl PBS were put into Falcon 2052 tubes incubated with 4 ml of 1% BSA for 10 minutes, and centrifuged at 1400 rpm for 5 minutes. Analysis of lymphocyte subpopulations was performed using anti-NK1.1, anti-CD3, anti-CD4 and anti CD-8 antibodies. Cells were washed twice in 1% BSA, and kept in 4° C. until reading. For the control group, only 5 μl of 1% BSA was added. Analytical cell sorting was performed on 1×10^4 cells from each group with a fluorescence-activated cell sorter (FACSTAR plus, Becton Dickinson). Only live cells were counted, and background fluorescence from non-antibody-treated lymphocytes was deducted from the levels obtained. Gates were set on forward- and side-scatters to exclude dead cells and red blood cells. The data were analyzed with Consort 30 two-color contour plot program (Becton Dickinson, Oxnard, Calif.), or the CELLQuest program.
Blood was drawn from mice in all groups and centrifuged at 14,000 rpm. Serum INFγ, IL2, IL4, IL10 and IL-12 levels were measured by “sandwich” ELISA using Genzyme Diagnostics kits (Genzyme Diagnostics, Mass.).
To determine the clinical and immunological consequences of administration of different β-glycolipids such as β-glucosylceramide (GluC), β-lactosyl-ceramide (LacC), and β-galactosyl-ceramide (GalC) and of ceramide on hepatocellular carcinoma (HCC), mice transplanted with human Hep3B HCC cells, were studied. Five groups of athymic Balb/c mice, consisting of 8 mice each, were sublethally irradiated and transplanted with human Hep3B HCC, followed by daily intraperitoneal injections of GluC, LacC, GalC, ceramide (1.5 μg in 100 μl PBS) or PBS (100μ) for 25 days. Animals were followed for tumor size and weight and for intrahepatic and intrasplenic lymphocyte subpopulations, serum cytokine levels and expression of STAT1, STAT4 and STAT6 in splenocytes.

[3] = system: TNBS induced colitis; assay: TNBS-induced colitis, mixture of β-GluC and β-LacC vs β-LacC alone (Example 3); format: in vivo, mice; conditions: with TNBS; for Weight: share of mice, TNBS alone: Weight loss, listed as β-LC
Procedure: as §1, §2, §3
Four macroscopic parameters were determined, namely: degree of colonic ulcerations; intestinal and peritoneal adhesions; wall thickness; and degree of mucosal edema. Each parameter was graded on a scale from 0 (completely normal) to 4 (most severe) by two experienced blinded examiners.
For histological evaluation of inflammation, distal colonic tissue (last 10 cm) was removed and fixed in 10% formaldehyde. Five paraffin sections from each mouse were then stained with hematoxylin-eosin by using standard techniques. The degree of inflammation on microscopic cross sections of the colon was graded semiquantitatively from 0 to 4 [Madsen et al., (1997) ibid.; Trop et al., Hepatology 27:746-755 (1999)]. Grade 0: normal with no signs of inflammation; Grade 1: very low level of leukocyte infiltration; Grade 2: low level of leukocyte infiltration; and Grade 3: high level of infiltration with high vascular density, and bowel wall thickening; Grade 4: transmural infiltrates with loss of goblet cells, high vascular density, wall thickening, and disruption of normal bowel architecture. The grading was performed by two experienced blinded examiners.
To determine the possible immuno-modulation effect of a mixture of different β-glycolipids, the effect of a mixture of β-Glucocerebroside and β-Lactosyl-ceramide was tested using a murine model of colitis.
As summarized in Table 3, five groups of mice were studied, each consisting of 10 mice. Colitis was induced by intracolonic installation of trinitrobenzenesulfonic acid (TNBS) on day 1 and 5 in groups A, B and D. Group A mice were fed regular chow diet. […]

[4] = Mixture of β-GluC and β-LacC or β-LacC alone in mice not treated with TNBS, control groups (Example 3); format: in vivo; conditions: without TNBS
Procedure: As summarized in Table 3, five groups of mice were studied, each consisting of 10 mice. Colitis was induced by intracolonic installation of trinitrobenzenesulfonic acid (TNBS) on day 1 and 5 in groups A, B and D. Group A mice were fed regular chow diet. Group B mice received oral (PO) 15 μg daily of a mixture of β-GluC and β-LacC, group D received only β-LacC. Groups C and E mice were not treated with TNBS, but received oral (PO) 15 μg daily of a mixture of β-GluC and β-LacC or only β-LacC, respectively, and served as control groups.
Mice were followed for macroscopic and microscopic colitis scores, as well as for survival and functional status and weight.

Activity [4]	Weight ([4]; share of mice)	Substance	alleviation of colitis (microscopic colitis scores) ([1]; FIG. 1)	alleviation of colitis (microscopic colitis scores) ([1]; FIG. 1, listed as Lactosyl-ceramide)	hepatic/splenic NKT lymphocyte ratio [2]	reduction of tumor volume (% change from maximal volume) [2]	tumors developed (% of animals) [2]	maximal tumor volume [2]	STAT4 expression in splenocytes [2]	STAT6 expression in splenocytes [2]	Weight ([3]; share of mice with no weight change)	Weight ([3]; share of mice with weight increase)	Activity ([3]; TNBS alone: Lethargic)
Normal	In 100% increase	β-lactosyl-ceramide [LacC]	most marked	most potent	1.94	78%	43%	77.9 mm^3	increased	increased	In 90% no change	In 10% increase	Normal
		β-glucosylceramide			6.13	43%	87%	71.4 mm^3					
		β-galactosyl-ceramide [GalC]				49%	71%	86.1 mm^3	increased	increased			
		ceramide			0.85	81%	50%	64.4 mm^3	increased	increased			
